Test results as given in ChEMBL document CHEMBL6074623, “Carbamoylation at C-8 position of natural 3-arylcoumarin scaffold for the discovery of novel PARP-1 inhibitors with potent anticancer activity” (Eur J Med Chem, 2024).

Legend:
[1] = system: MDA-MB-436; assay: Antiproliferative activity against human MDA-MB-436 cells assessed as inhibition of cell growth at 20 uM incubated for 48 hrs by MTT assay relative to control; format: functional
[2] = system: HCC1937; assay: Antiproliferative activity against human HCC1937 cells assessed as inhibition of cell growth at 20 uM incubated for 48 hrs by MTT assay relative to control; format: functional
[3] = system: SUM149PT; assay: Antiproliferative activity against human SUM149PT cells assessed as inhibition of cell growth at 20 uM incubated for 48 hrs by MTT assay relative to control; format: functional
[4] = system: CAPAN-1; assay: Antiproliferative activity against human CAPAN-1 cells assessed as inhibition of cell growth at 5 uM incubated for 48 hrs by MTT assay relative to control; format: functional
[5] = system: CAPAN-1; assay: Antiproliferative activity against human CAPAN-1 cells assessed as inhibition of cell growth at 20 uM incubated for 48 hrs by MTT assay relative to control; format: functional
[6] = system: SUM149PT; assay: Antiproliferative activity against human SUM149PT cells assessed as inhibition of cell growth incubated for 48 hrs by MTT assay; format: functional, cell-based
[7] = system: HCC1937; assay: Antiproliferative activity against human HCC1937 cells assessed as inhibition of cell growth incubated for 48 hrs by MTT assay; format: functional, cell-based; details: HCC1937, 48 h
[8] = system: CAPAN-1; assay: Antiproliferative activity against human CAPAN-1 cells assessed as inhibition of cell growth incubated for 48 hrs by MTT assay; format: functional, cell-based; details: CAPAN-1, 48 h
[9] = system: HCC1937; assay: Antiproliferative activity against human HCC1937 cells assessed as inhibition of cell growth at 5 uM incubated for 48 hrs by MTT assay relative to control; format: functional
[10] = system: SUM149PT; assay: Antiproliferative activity against human SUM149PT cells assessed as inhibition of cell growth at 5 uM incubated for 48 hrs by MTT assay relative to control; format: functional
[11] = system: SUM149PT; assay: Induction of cell cycle arrest in human SUM149PT cells assessed as accumulation of cells at G2/M phase at 2 uM incubated for 24 hrs by propidium iodide/RNase A staining based flow cytometry (reference value: 5.54 %); format: functional
[12] = system: SUM149PT; assay: Induction of cell cycle arrest in human SUM149PT cells assessed as accumulation of cells at G0/G1 phase at 2 uM incubated for 24 hrs by propidium iodide/RNase A staining based flow cytometry (reference value: 72.8 %); format: functional
[13] = system: SUM149PT; assay: Induction of apoptosis in human SUM149PT cells assessed as necrotic cells at 2 uM incubated for 48 hrs by Annexin V-FITC/PI staining based flow cytometry (reference value: 0.51 %); format: functional
[14] = system: SUM149PT; assay: Induction of apoptosis in human SUM149PT cells assessed as viable cells at 2 uM incubated for 48 hrs by Annexin V-FITC/PI staining based flow cytometry (reference value: 96.1 %); format: functional; details: read-out: Activity
[15] = system: SUM149PT; assay: Induction of apoptosis in human SUM149PT cells assessed as viable cells at 2 uM incubated for 24 hrs by Annexin V-FITC/PI staining based flow cytometry (reference value: 93.7 %); format: functional; details: read-out: Activity
[16] = system: SUM149PT; assay: Induction of cell cycle arrest in human SUM149PT cells assessed as accumulation of cells at G0/G1 phase at 2 uM incubated for 48 hrs by propidium iodide/RNase A staining based flow cytometry (reference value: 69.2 %); format: functional
[17] = system: SUM149PT; assay: Induction of cell cycle arrest in human SUM149PT cells assessed as accumulation of cells at S phase at 2 uM incubated for 48 hrs by propidium iodide/RNase A staining based flow cytometry (reference value: 18.7 %); format: functional
[18] = system: SUM149PT; assay: Induction of apoptosis in human SUM149PT cells assessed as early apoptotic cells at 2 uM incubated for 24 hrs by Annexin V-FITC/PI staining based flow cytometry (reference value: 2.59 %); format: functional
[19] = system: SUM149PT; assay: Induction of apoptosis in human SUM149PT cells assessed as early apoptotic cells at 2 uM incubated for 48 hrs by Annexin V-FITC/PI staining based flow cytometry (reference value: 2.28 %); format: functional
[20] = system: SUM149PT; assay: Induction of apoptosis in human SUM149PT cells assessed as necrotic cells at 2 uM incubated for 24 hrs by Annexin V-FITC/PI staining based flow cytometry (reference value: 1.27 %); format: functional
[21] = system: SUM149PT; assay: Induction of apoptosis in human SUM149PT cells assessed as late apoptotic cells at 2 uM incubated for 24 hrs by Annexin V-FITC/PI staining based flow cytometry (reference value: 2.45 %); format: functional
[22] = system: SUM149PT; assay: Induction of cell cycle arrest in human SUM149PT cells assessed as accumulation of cells at S phase at 2 uM incubated for 24 hrs by propidium iodide/RNase A staining based flow cytometry (reference value: 16.4 %); format: functional
[23] = system: SUM149PT; assay: Induction of apoptosis in human SUM149PT cells assessed as late apoptotic cells at 2 uM incubated for 48 hrs by Annexin V-FITC/PI staining based flow cytometry (reference value: 1.13 %); format: functional

IC50 [7] [µM]	SMILES	inhibition at 20 µM [1] [%]	inhibition at 20 µM [2] [%]	inhibition at 20 µM [3] [%]	IC50 [6] [µM]	IC50 [8] [µM]	further results
–	COc1ccc(-c2cc3cccc(C(N)=O)c3oc2=O)cc1OC	< 40	> 60	> 60	–	–	–
–	NC(=O)c1cc(F)cc2cc(-c3ccc4c(c3)OCO4)c(=O)oc12	< 40	> 60	> 60	–	–	–
–	NC(=O)c1cccc2cc(-c3ccccc3)c(=O)oc12	< 40	> 60	> 60	–	–	inhibition at 5 µM [4]: > 50%; inhibition at 20 µM [5]: > 60%
–	NC(=O)c1cccc2cc(-c3ccc4c(c3)OCO4)c(=O)oc12	< 40	> 60	> 60	–	–	–
–	COc1cc(-c2cc3cccc(C(N)=O)c3oc2=O)ccc1O	< 40	> 60	> 60	–	–	–
–	NC(=O)c1cccc2cc(-c3cccc(O)c3)c(=O)oc12	< 40	> 60	> 60	–	–	–
–	NC(=O)c1cccc2cc(-c3ccsc3)c(=O)oc12	< 40	> 60	> 60	–	–	–
–	COc1ccc(-c2cc3cccc(C(N)=O)c3oc2=O)cc1	< 40	> 60	> 60	–	–	–
–	COc1cc(OC)cc(-c2cc3cc(F)cc(C(N)=O)c3oc2=O)c1	< 40	> 60	> 60	–	–	–
10.8	NC(=O)c1cccc2cc(-c3ccc(O)cc3)c(=O)oc12	< 40	> 60	> 60	3.14	19.1	–
2.94	NC(=O)c1cc(F)cc2cc(-c3ccccc3O)c(=O)oc12	< 40	> 80	> 60	3.29	11.9	inhibition at 5 µM [9]: > 70%
–	NC(=O)c1cccc2cc(-c3ccccc3O)c(=O)oc12	< 40	> 60	> 60	–	–	–
10.6	COc1ccc(-c2cc3cccc(C(N)=O)c3oc2=O)cc1O	< 40	> 60	> 60	4.82	15.3	–
1.86	NC(=O)c1cc(F)cc2cc(-c3cccs3)c(=O)oc12	< 40	> 80	> 80	0.62	17.2	inhibition at 5 µM [9]: > 70%; inhibition at 5 µM [10]: > 70%
–	NC(=O)c1cccc2cc(-c3cccs3)c(=O)oc12	< 40	> 60	> 60	–	–	–
–	NC(=O)c1cc(F)cc2cc(-c3cccc(O)c3)c(=O)oc12	< 40	> 60	> 60	–	–	–
–	COc1cc(OC)cc(-c2cc3cccc(C(N)=O)c3oc2=O)c1	< 40	> 60	> 60	–	–	–
–	NC(=O)c1cccc2cn(-c3ccc([C@@H]4CCCNC4)cc3)nc12 [NIRAPARIB]	–	–	–	7.05	10.4	Activity [11]: 16.2%; Activity [12]: 54.2%; Activity [13]: 3.34%; viability at 2 µM [14]: 77.7%; viability at 2 µM [15]: 89.9%; Activity [16]: 32%; Activity [17]: 51.9%; Activity [18]: 1.85%; Activity [19]: 11.8%; Activity [20]: 1.93%; Activity [21]: 6.34%; Activity [22]: 28.4%; Activity [23]: 7.18%
3.71	NC(=O)c1cc(F)cc2cc(-c3ccc4c(c3)CCO4)c(=O)oc12	< 40	> 60	> 60	5.11	21.1	–
3.67	COc1ccc(-c2cc3cc(F)cc(C(N)=O)c3oc2=O)cc1OC	< 40	> 60	> 60	4.09	8.6	–
4.2	COc1cc(-c2cc3cc(F)cc(C(N)=O)c3oc2=O)ccc1O	< 40	> 60	> 60	3.18	3.16	inhibition at 5 µM [4]: > 50%; inhibition at 20 µM [5]: > 60%
–	NC(=O)c1cc(F)cc2cc(-c3ccc(O)cc3)c(=O)oc12	< 40	> 60	> 60	–	–	–
1.9	NC(=O)c1cc(F)cc2cc(-c3ccsc3)c(=O)oc12	< 40	> 60	> 60	11.6	20.6	–
–	NC(=O)c1cccc2cc(-c3ccc4c(c3)CCO4)c(=O)oc12	< 40	> 60	> 60	–	–	–
–	COc1ccc(-c2cc3cc(F)cc(C(N)=O)c3oc2=O)cc1O	< 40	> 60	> 60	–	–	–
–	NC(=O)c1cc(F)cc2cc(-c3ccccc3)c(=O)oc12	< 40	> 60	> 60	–	–	–
0.62	COc1cccc(-c2cc3cccc(C(N)=O)c3oc2=O)c1	< 40	> 80	> 60	4.93	4.6	inhibition at 5 µM [4]: > 50%; inhibition at 5 µM [9]: > 70%; inhibition at 20 µM [5]: > 60%
–	COc1ccc(-c2cc3cc(F)cc(C(N)=O)c3oc2=O)cc1	< 40	> 60	> 60	–	–	–
